Results as given in US9149475B2, “Protein kinase C inhibitors and uses thereof” (Rigel Pharmaceuticals, Inc., priority 2009, dated 2015).

System: Human primary T cells
Test: IL-2 ELISA, human primary T cell, anti-CD3+CD28+ (whole cell assay)
Format: cell-based
Settings: Homo sapiens, T-cell, 24 h, human primary T cells stimulated with anti-CD3 + anti-CD28, 24 hours
Experimental: (§1) Human primary T cells were prepared as follows. Whole blood was obtained from a healthy volunteer, mixed 1:1 with PBS, layered on to Ficoll Hypaque (Amersham Pharmacia Biotech, Piscataway, N.J., Catalog #17-1440-03) in 2:1 blood/PBS:ficoll ratio and centrifuged for 30 minutes at 4° C. at 1750 rpm. The cells at the serum:ficoll interface were recovered and washed twice with 5 volumes of PBS. These freshly isolated human peripheral blood mononuclear cells were cultured in Yssel's medium containing 40 U/mL IL2 in a flask pre-coated with 1 μg/mL αCD3 and 5 μg/mL αCD28 (Anti-Human CD3, BD Pharmingen Catalog #555336, Anti-Human CD28, Beckman Coulter Catalog #IM1376). The cells were stimulated for 3-4 days, then transferred to a fresh flask and maintained in RPMI (RPMI-1640 with L-Glutamine; Mediatech, Inc., Herndon Va., cat. #10-040-CM) with 10% FBS and 40 U/mL IL-2. The primary T-cells were then washed twice with PBS to remove the IL-2.
Human primary T cells (100,000 cells per well) were pre-incubated with or without test compound in Yssel's medium for 1 hr at 37° C. Cells were then stimulated by transferring them to round-bottom 96-well plates pre-coated with 1 μg/ml μCD3 and 5 μg/ml μCD28. For counter assay, cells were instead stimulated by adding 8× stock solutions of PMA and ionomycin in Yssels (for final concentrations of 0.5 ng/ml PMA and 0.1 μM ionomycin, both from Calbiochem). Cells were incubated at 37° C. for 24 hours before 100 μL supernatants were harvested for quantification of IL-2 by ELISA using Human IL-2 Duoset ELISA Kit from R and D Systems, Cat. #DY202E.
as §1, with “Human primary T cell isolation and culture: Human primary” for “Human primary”, “for 30 min at 4°” for “for 30 minutes at 4°”, “at the serum: ficoll interface were” for “at the serum:ficoll interface were”
Primary T cell stimulation and IL2 ELISA: Human primary T cells (100,000 cells per well) were pre-incubated with or without test compound in Yssel's medium for 1 hr at 37° C. Cells were then stimulated by transferring them to round-bottom 96-well plates pre-coated with 1 μg/ml αCD3 and 5 μg/ml αCD28. For counter assay, cells were instead stimulated by adding 8× stock solutions of PMA and ionomycin in Yssels (for final concentrations of 0.5 ng/ml PMA and 0.1 μM ionomycin, both from Calbiochem). Cells were incubated at 37° C. for 24 hours before 100 μL supernatants were harvested for quantification of IL-2 by ELISA using Human IL-2 Duoset ELISA Kit from R and D Systems, Cat. #DY202E.

Row | Structure (SMILES) | IC50 [µM]
1 | CC1(C)CC(Nc2nc(Nc3ccc(OCCn4cncn4)c(OC(F)F)c3)ncc2F)CC(C)(C)N1 [Compound I-25, N2-(4-(2-(1H-1,2,4-triazol-1-yl)ethoxy)-3-(difluoromethoxy)phenyl)-5-fluoro-N4-(2,2,6,6-tetramethylpiperidin-4-yl)pyrimidine-2,4-diamine] | > 1
2 | CN1C(C)(C)CC(Nc2nc(Nc3ccc(OCCn4ccnn4)c(OC(F)F)c3)ncc2F)CC1(C)C [Compound I-26, N2-(4-(2-(1H-1,2,3-triazol-1-yl)ethoxy)-3-(difluoromethoxy)phenyl)-5-fluoro-N4-(1,2,2,6,6-pentamethylpiperidin-4-yl)pyrimidine-2,4-diamine] | 0.25 to 0.5
3 | CN1C(C)(C)CC(Nc2nc(Nc3ccc(OCCn4cncn4)c(OC(F)F)c3)ncc2F)CC1(C)C [Compound I-27, N2-(4-(2-(1H-1,2,4-triazol-1-yl)ethoxy)-3-(difluoromethoxy)phenyl)-5-fluoro-N4-(1,2,2,6,6-pentamethylpiperidin-4-yl)pyrimidine-2,4-diamine] | < 0.25
4 | CC1(C)CC(Nc2nc(Nc3cc(OCCn4cncn4)cc(C(F)(F)F)c3)ncc2F)CC(C)(C)N1 [Compound I-28, N2-(3-(2-(1H-1,2,4-triazol-1-yl)ethoxy)-5-(trifluoromethyl)phenyl)-5-fluoro-N4-(2,2,6,6-tetramethylpiperidin-4-yl)pyrimidine-2,4-diamine] | 0.5 to 1
5 | CN1C(C)(C)CC(Nc2nc(Nc3cc(OCCn4cncn4)cc(C(F)(F)F)c3)ncc2F)CC1(C)C [Compound I-29, N2-(3-(2-(1H-1,2,4-triazol-1-yl)ethoxy)-5-(trifluoromethyl)phenyl)-5-fluoro-N4-(1,2,2,6,6-pentamethylpiperidin-4-yl)pyrimidine-2,4-diamine] | 0.5 to 1
6 | CC1(C)CC(Nc2nc(Nc3ccc(OCCN4CCCC4=O)c(OC(F)F)c3)ncc2F)CC(C)(C)N1 [Compound I-30, 1-(2-(4-(4-(2,2,6,6-tetramethylpiperidin-4-ylamino)-5-fluoropyrimidin-2-ylamino)-2-(difluoromethoxy)phenoxy)ethyl)pyrrolidin-2-one] | 0.5 to 1
7 | CN1C(C)(C)CC(Nc2nc(Nc3ccc(OCCN4CCCC4=O)c(OC(F)F)c3)ncc2F)CC1(C)C [Compound I-31, 1-(2-(4-(4-(1,2,2,6,6-pentamethylpiperidin-4-ylamino)-5-fluoropyrimidin-2-ylamino)-2-(difluoromethoxy)phenoxy)ethyl)pyrrolidin-2-one] | < 0.25
8 | CC1(C)CC(Nc2nc(Nc3cc(OCCn4ccnn4)cc(C(F)(F)F)c3)ncc2F)CC(C)(C)N1 [Compound I-32, N2-(3-(2-(1H-1,2,3-triazol-1-yl)ethoxy)-5-(trifluoromethyl)phenyl)-5-fluoro-N4-(2,2,6,6-tetramethylpiperidin-4-yl)pyrimidine-2,4-diamine] | 0.5 to 1
9 | CN1C(C)(C)CC(Nc2nc(Nc3cc(OCCn4ccnn4)cc(C(F)(F)F)c3)ncc2F)CC1(C)C [Compound I-33, N2-(3-(2-(1H-1,2,3-triazol-1-yl)ethoxy)-5-(trifluoromethyl)phenyl)-5-fluoro-N4-(1,2,2,6,6-pentamethylpiperidin-4-yl)pyrimidine-2,4-diamine] | 0.25 to 0.5
10 | CC1(C)CC(Nc2nc(Nc3ccc(OCCn4ccnn4)c(OC(F)F)c3)ncc2C#N)CC(C)(C)N1 [Compound I-34, 4-(2,2,6,6-tetramethylpiperidin-4-ylamino)-2-(4-(2-(1H-1,2,3-triazol-1-yl)ethoxy)-3-(difluoromethoxy)phenylamino)pyrimidine-5-carbonitrile] | 0.5 to 1
11 | CC1(C)CC(Nc2nc(Nc3cc(F)cc(OCCCn4cccc4)c3)ncc2F)CC(C)(C)N1 [Compound I-35, N2-(3-(3-(1H-pyrrol-1-yl)propoxy)-5-fluorophenyl)-5-fluoro-N4-(2,2,6,6-tetramethylpiperidin-4-yl)pyrimidine-2,4-diamine] | 0.5 to 1
12 | CN1C(C)(C)CC(Nc2nc(Nc3cc(F)cc(OCCCn4cccc4)c3)ncc2F)CC1(C)C [Compound I-36, N2-(3-(3-(1H-pyrrol-1-yl)propoxy)-5-fluorophenyl)-5-fluoro-N4-(1,2,2,6,6-pentamethylpiperidin-4-yl)pyrimidine-2,4-diamine] | 0.5 to 1
13 | CC1(C)CC(Nc2nc(Nc3cc(F)cc(OCCN4CCCC4=O)c3)ncc2F)CC(C)(C)N1 [Compound I-37, 1-(2-(3-(4-(2,2,6,6-tetramethylpiperidin-4-ylamino)-5-fluoropyrimidin-2-ylamino)-5-fluorophenoxy)ethyl)pyrrolidin-2-one] | > 1
14 | CN1C(C)(C)CC(Nc2nc(Nc3cc(F)cc(OCCN4CCCC4=O)c3)ncc2F)CC1(C)C [Compound I-38, 1-(2-(3-(4-(1,2,2,6,6-pentamethylpiperidin-4-ylamino)-5-fluoropyrimidin-2-ylamino)-5-fluorophenoxy)ethyl)pyrrolidin-2-one] | 0.5 to 1
15 | CC1(C)CC(Nc2nc(Nc3cc(F)cc(OCCn4cncn4)c3)ncc2F)CC(C)(C)N1 [Compound I-39, N2-(3-(2-(1H-1,2,4-triazol-1-yl)ethoxy)-5-fluorophenyl)-5-fluoro-N4-(2,2,6,6-tetramethylpiperidin-4-yl)pyrimidine-2,4-diamine] | > 1
16 | CN1C(C)(C)CC(Nc2nc(Nc3cc(F)cc(OCCn4cncn4)c3)ncc2F)CC1(C)C [Compound I-40, N2-(3-(2-(1H-1,2,4-triazol-1-yl)ethoxy)-5-fluorophenyl)-5-fluoro-N4-(1,2,2,6,6-pentamethylpiperidin-4-yl)pyrimidine-2,4-diamine] | 0.5 to 1
17 | CN1C(C)(C)CC(Nc2nc(Nc3ccc(OCCCn4cccc4)c(OC(F)F)c3)ncc2F)CC1(C)C [Compound I-41, N2-(4-(3-(1H-pyrrol-1-yl)propoxy)-3-(difluoromethoxy)phenyl)-5-fluoro-N4-(1,2,2,6,6-pentamethylpiperidin-4-yl)pyrimidine-2,4-diamine] | < 0.25
18 | CC1(C)CC(Nc2nc(Nc3ccc(OCCCn4cccc4)c(OC(F)F)c3)ncc2F)CC(C)(C)N1 [Compound I-42, N2-(4-(3-(1H-pyrrol-1-yl)propoxy)-3-(difluoromethoxy)phenyl)-5-fluoro-N4-(2,2,6,6-tetramethylpiperidin-4-yl)pyrimidine-2,4-diamine] | < 0.25
19 | CN1C(C)(C)CC(Nc2nc(Nc3ccc(Oc4ccncc4)c(OC(F)F)c3)ncc2F)CC1(C)C [Compound I-43, N2-(3-(difluoromethoxy)-4-(pyridin-4-yloxy)phenyl)-5-fluoro-N4-(1,2,2,6,6-pentamethylpiperidin-4-yl)pyrimidine-2,4-diamine] | > 1
20 | CN1C(C)(C)CC(Nc2nc(Nc3ccc(Oc4cccnc4)c(OC(F)F)c3)ncc2F)CC1(C)C [Compound I-44, N2-(3-(difluoromethoxy)-4-(pyridin-3-yloxy)phenyl)-5-fluoro-N4-(1,2,2,6,6-pentamethylpiperidin-4-yl)pyrimidine-2,4-diamine] | 0.25 to 0.5
21 | CC1(C)CC(Nc2nc(Nc3ccc(Oc4cccnc4)c(OC(F)F)c3)ncc2F)CC(C)(C)N1 [Compound I-45, N2-(3-(difluoromethoxy)-4-(pyridin-3-yloxy)phenyl)-5-fluoro-N4-(2,2,6,6-tetramethylpiperidin-4-yl)pyrimidine-2,4-diamine] | 0.25 to 0.5
22 | CN1C(C)(C)CC(Nc2nc(Nc3ccc(OCCN4CCCC4)c(OC(F)F)c3)ncc2F)CC1(C)C [Compound I-46, N2-(4-(2-(pyrrolidin-1-yl)ethoxy)-3-(difluoromethoxy)phenyl)-5-fluoro-N4-(1,2,2,6,6-pentamethylpiperidin-4-yl)pyrimidine-2,4-diamine] | < 0.25
23 | CC1(C)CC(Nc2nc(Nc3ccc(OCCCN4CCOCC4)c(OC(F)F)c3)ncc2F)CC(C)(C)N1 [Compound I-47, N2-(4-(3-morpholinopropoxy)-3-(difluoromethoxy)phenyl)-5-fluoro-N4-(2,2,6,6-tetramethylpiperidin-4-yl)pyrimidine-2,4-diamine] | 0.5 to 1
